The source of these data is ChEMBL document CHEMBL1949658, “3D-QSAR and 3D-QSSR models of negative allosteric modulators facilitate the design of a novel selective antagonist of human α4β2 neuronal nicotinic acetylcholine receptors” (Bioorg Med Chem Lett, 2012).

Where only a bound is given, the exact number is not on record here.

The term logP denotes the decadic logarithm of the partition coefficient of the neutral form, usually between octanol and water. A lower logP goes with a more hydrophilic compound.

Series [1] has as its target Neuronal acetylcholine receptor; alpha3/beta4 (Homo sapiens, UniProt P30926+P32297). Put plainly: Antagonist activity at human nAChR alpha3/beta4 receptor expressed in HEK ts201 cells assessed as calcium accumulation by fluorescence analysis. It is filed as functional, cell-based.
The target in series [2] is Neuronal acetylcholine receptor; alpha4/beta2 (Homo sapiens, UniProt P17787+P43681). Briefly: Antagonist activity at human nAChR alpha4/beta2 receptor expressed in HEK ts201 cells assessed as calcium accumulation by fluorescence analysis. It is filed as functional, cell-based.
The species entered for series [3] is Homo sapiens. Put plainly: Selectivity ratio of IC50 for human nAChR alpha3/beta4 receptor to IC50 for human nAChR alpha4/beta2 receptor.
Series [4] in a line: Lipophilicity, log P of the compound. Particulars: octanol/water. The series is classed as physicochemical.
The species entered for series [5] is Homo sapiens. Put plainly: Selectivity ratio of pIC50 for human nAChR alpha3/beta4 receptor to pIC50 for human nAChR alpha4/beta2 receptor.

Sequence of Neuronal acetylcholine receptor; alpha3/beta4 (P30926 whole entry): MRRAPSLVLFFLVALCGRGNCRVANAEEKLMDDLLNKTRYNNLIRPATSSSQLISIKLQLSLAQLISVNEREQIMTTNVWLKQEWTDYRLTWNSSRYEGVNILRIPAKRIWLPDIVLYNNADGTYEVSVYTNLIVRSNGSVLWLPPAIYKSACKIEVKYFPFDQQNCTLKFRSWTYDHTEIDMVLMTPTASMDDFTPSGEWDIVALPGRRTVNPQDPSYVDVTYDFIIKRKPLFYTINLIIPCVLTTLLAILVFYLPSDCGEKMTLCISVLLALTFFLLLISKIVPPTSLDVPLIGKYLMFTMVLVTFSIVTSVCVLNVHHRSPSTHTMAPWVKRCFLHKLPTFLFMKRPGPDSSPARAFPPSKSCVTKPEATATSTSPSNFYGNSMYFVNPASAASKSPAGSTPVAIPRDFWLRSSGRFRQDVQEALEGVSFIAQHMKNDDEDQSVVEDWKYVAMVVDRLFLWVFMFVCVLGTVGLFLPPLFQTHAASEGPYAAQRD
Sequence of Neuronal acetylcholine receptor; alpha3/beta4 (P32297 whole entry): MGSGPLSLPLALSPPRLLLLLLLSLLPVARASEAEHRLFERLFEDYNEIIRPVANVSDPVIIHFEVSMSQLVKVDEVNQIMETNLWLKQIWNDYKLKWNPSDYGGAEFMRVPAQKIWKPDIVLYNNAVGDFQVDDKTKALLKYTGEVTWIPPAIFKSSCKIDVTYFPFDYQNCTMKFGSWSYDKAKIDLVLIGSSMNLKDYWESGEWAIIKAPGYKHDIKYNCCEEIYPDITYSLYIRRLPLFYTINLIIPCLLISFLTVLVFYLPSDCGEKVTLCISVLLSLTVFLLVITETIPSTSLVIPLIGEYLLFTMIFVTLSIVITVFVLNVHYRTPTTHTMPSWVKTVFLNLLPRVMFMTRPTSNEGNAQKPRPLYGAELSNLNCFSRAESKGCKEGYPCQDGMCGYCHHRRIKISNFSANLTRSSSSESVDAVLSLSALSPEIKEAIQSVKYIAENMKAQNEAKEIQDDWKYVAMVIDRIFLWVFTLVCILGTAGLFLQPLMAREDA
Sequence of Neuronal acetylcholine receptor; alpha4/beta2 (P17787 whole entry): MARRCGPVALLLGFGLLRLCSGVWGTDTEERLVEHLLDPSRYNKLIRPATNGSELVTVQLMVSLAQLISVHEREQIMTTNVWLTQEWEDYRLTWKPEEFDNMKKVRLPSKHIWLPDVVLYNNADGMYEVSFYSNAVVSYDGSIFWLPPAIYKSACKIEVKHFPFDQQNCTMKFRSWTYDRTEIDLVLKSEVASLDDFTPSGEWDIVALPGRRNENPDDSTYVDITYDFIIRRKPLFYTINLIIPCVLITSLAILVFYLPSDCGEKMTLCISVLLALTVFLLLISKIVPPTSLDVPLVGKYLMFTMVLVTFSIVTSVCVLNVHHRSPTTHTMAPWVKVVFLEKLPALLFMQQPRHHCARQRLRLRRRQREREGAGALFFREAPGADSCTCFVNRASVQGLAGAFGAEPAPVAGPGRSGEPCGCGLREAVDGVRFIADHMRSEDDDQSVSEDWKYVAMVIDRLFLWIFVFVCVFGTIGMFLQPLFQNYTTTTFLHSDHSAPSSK
Sequence of Neuronal acetylcholine receptor; alpha4/beta2 (P43681 whole entry): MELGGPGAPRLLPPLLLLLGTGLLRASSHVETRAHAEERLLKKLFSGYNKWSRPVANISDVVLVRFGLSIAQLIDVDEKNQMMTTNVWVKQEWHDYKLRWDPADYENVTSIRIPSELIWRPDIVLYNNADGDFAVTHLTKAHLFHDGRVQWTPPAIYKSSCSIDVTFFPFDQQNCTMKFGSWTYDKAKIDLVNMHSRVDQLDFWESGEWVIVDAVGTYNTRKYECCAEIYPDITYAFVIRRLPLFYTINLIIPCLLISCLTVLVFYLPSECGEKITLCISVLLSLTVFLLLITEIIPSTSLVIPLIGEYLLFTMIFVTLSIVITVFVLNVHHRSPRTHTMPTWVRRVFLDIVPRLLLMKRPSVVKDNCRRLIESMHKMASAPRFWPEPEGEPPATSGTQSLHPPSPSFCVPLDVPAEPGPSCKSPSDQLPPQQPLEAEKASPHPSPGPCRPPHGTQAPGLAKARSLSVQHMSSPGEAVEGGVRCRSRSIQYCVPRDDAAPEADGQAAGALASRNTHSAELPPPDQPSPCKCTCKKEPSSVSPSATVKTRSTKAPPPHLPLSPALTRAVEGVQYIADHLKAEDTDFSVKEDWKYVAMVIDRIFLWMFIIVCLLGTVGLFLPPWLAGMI

As for `O=C(Nc1ccncn1)c1ccccc1-c1ccccc1`, the IC50 in series [1] (read-out: IC50) was 39.6 µM; in series [2] (read-out: IC50), 25.1 µM. For the same compound, the Ratio IC50 in the series listed under Homo sapiens [3] came to 1.6.

Regarding `O=C(Nc1ccccn1)c1ccccc1-c1ccccc1`, the IC50 in series [1] (read-out: IC50) was found to be 17.5 µM; in series [2] (read-out: IC50), 13.6 µM. Further, in the series listed under Homo sapiens [3], the Ratio IC50 turned out to be 1.3.

In the case of `O=C(OCC1CCCN(C(=O)CCc2ccccc2)C1)c1ccccc1C(F)(F)F` (configuration not stated), the IC50 in series [1] (read-out: IC50) was found to be 6.3 µM; in series [2] (read-out: IC50), 3.9 µM. Also, the Ratio IC50 in the series filed under Homo sapiens [3] stood at 2.1.

For the compound `O=C(NCc1cccc2ccccc12)c1ccccc1-c1ccccc1`, the figures for the IC50 in series [1] (read-out: IC50) and in series [2] (read-out: IC50) were over 100 µM and 13.9 µM, respectively. In series [4], this compound gave a logP of 5. In the series listed under Homo sapiens [3], the Ratio IC50 was over 10.

Take `O=C(OC1CCCN(C(=O)CCc2ccccc2)C1)c1ccccc1-c1ccccc1` (configuration not stated): the IC50 in series [1] (read-out: IC50) was 6 µM; in series [2] (read-out: IC50), 4.3 µM. Further, the Ratio IC50 in the series filed under Homo sapiens [3] stood at 1.5.

Take `O=C(NCc1ccccc1)c1ccccc1-c1ccccc1`: the IC50 is 7.6 µM in series [1] (read-out: IC50) and 7.5 µM in series [2] (read-out: IC50). Besides, in the series listed under Homo sapiens [3], the Ratio IC50 came out at 1.

Regarding `O=C(OCC1CCN(C(=O)CCc2ccccc2)CC1)c1ccccc1-c1ccccc1`, the IC50 in series [1] (read-out: IC50) turned out to be 9.4 µM; in series [2] (read-out: IC50), 5.9 µM. Also, in the series filed under Homo sapiens [3], the Ratio IC50 turned out to be 1.4.

For the compound `O=C(OCC1CCCN(CCc2ccccc2)C1)c1ccccc1N1C(=O)CC(Cc2ccccc2)C1=O` (configuration not stated), the IC50 in series [1] (read-out: pIC50 (converted)) is 11.7 µM; in series [2] (read-out: pIC50 (converted)), 4.47 µM. In addition, the Ratio pIC50 in the series filed under Homo sapiens [5] was determined as 0.42.

On to `O=C(OCC1CCCN(CCCc2ccccc2)C1)c1ccccc1-c1ccccc1` (configuration not stated), for which the IC50 is over 100 µM in series [1] (read-out: IC50) and 13.5 µM in series [2] (read-out: IC50). Besides, the logP in series [4] was found to be 5.9. Besides, in the series listed under Homo sapiens [5], the Ratio pIC50 worked out at 3.87.

On to `O=C(OCC1=CCCN(CCCc2ccccc2)C1)c1ccccc1N1C(=O)CC(Cc2ccccc2)C1=O` (configuration not stated), for which the IC50 was 3.72 µM in series [1] (read-out: pIC50 (converted)) and 5.13 µM in series [2] (read-out: pIC50 (converted)). For the same compound, in the series listed under Homo sapiens [5], the Ratio pIC50 was -0.14.

For the compound `c1ccc(CCCN2CCCC(COCc3cn(Cc4ccccc4-c4ccccc4)nn3)C2)cc1` (configuration not stated), the IC50 in series [1] (read-out: pIC50 (converted)) is 7.24 µM; in series [2] (read-out: pIC50 (converted)), 2.88 µM. Moreover, the Ratio pIC50 in the series filed under Homo sapiens [5] is 0.39.

On to `CC1CC(=O)N(c2ccccc2C(=O)OCC2CCCN(CCOc3cccc4ccccc34)C2)C1=O` (configuration not stated), for which the IC50 in series [1] (read-out: pIC50 (converted)) is 15.8 µM; in series [2] (read-out: pIC50 (converted)), 3.89 µM. Moreover, the Ratio pIC50 in the series listed under Homo sapiens [5] was 0.61.

With `CC1CC(=O)N(c2ccccc2C(=O)OCC2CCCN(CCCCCOc3ccc(Cl)c(Cl)c3)C2)C1=O` (configuration not stated), the IC50 is 9.12 µM in series [1] (read-out: pIC50 (converted)) and 17.4 µM in series [2] (read-out: pIC50 (converted)). The Ratio pIC50 in the series filed under Homo sapiens [5] was -0.28.

For the compound `O=C(Nc1cccc2ccccc12)c1ccccc1-c1ccccc1`, the IC50 in series [1] (read-out: IC50) is 18.2 µM; in series [2] (read-out: IC50), 10.7 µM. Besides, in the series listed under Homo sapiens [3], the Ratio IC50 was found to be 1.8.

For `O=C(Nc1ccccc1)c1ccccc1-c1ccccc1`, the IC50 in series [1] (read-out: IC50) amounted to 10.7 µM; in series [2] (read-out: IC50), 6.9 µM. Besides, the Ratio IC50 in the series listed under Homo sapiens [3] came to 1.6.
